This test relates to C. albicans SC 5314. Nature of the test: Single-dose intravenous treatment of systemic candidiasis in mice. It is filed as in vivo. Particulars: Candida albicans, SC5314, iv. The protocol: Female Swiss Webster mice were infected intraveneously with 5 x 10⁶ blastospores of C. albicans SC 5314 and treated one time with either ABLC or amphotericin B, five hours later. The amphotericin B was diluted in 5% dextrose for intravenous injection into the experimental mice. The ABLC formulation was also administered intravenously.

Data on one compound can be found in patent EP0421733B1, “Amphotericin B lipid complex” (THE LIPOSOME COMPANY, INC., priority 1989, dated 1991).

Like-named read-outs stand apart in the source and are kept apart here.

On to `C[C@@H]1[C@H](O)[C@@H](C)/C=C/C=C/C=C/C=C/C=C/C=C/C=C/[C@H](O[C@@H]2O[C@H](C)[C@@H](O)[C@H](N)[C@@H]2O)C[C@@H]2O[C@](O)(C[C@@H](O)C[C@@H](O)[C@H](O)CC[C@@H](O)C[C@@H](O)CC(=O)O[C@H]1C)C[C@H](O)[C@H]2C(=O)O` [Amphotericin B], for which the ED50 is, setting by setting: (5 h, read-out: ED₅₀(mg AMB/kg) Clearance) 0.7 mg/kg; (5 h, read-out: ED₅₀(mg AMB/kg) Survival) 0.46 mg/kg; (read-out: survival ED₅₀) 0.46 mg/kg; (single i.v. dose, infected mice, read-out: ED₅₀ based on kidney clearance) 0.7 mg/kg.
